The text below walks through data of patent US12600731B2, “Isoxazolo[5,4-H]quinazoline compounds as protein kinase inhibitors” (CHENGDU CYNOGEN BIO-PHARMACEUTICAL TECHNOLOGY CO., LTD., priority 2019, dated 2026).

What all share (type): biochemical
Experiment [1] concerns the target CDK2/Cyclin A2 (Homo sapiens, UniProt P24941). The experiment is described as follows: Kinase activity assay, CDK2/Cyclin A2 (tested in a similar manner). The following applies: tested in a similar manner to CDK4/cyclin D3. The procedure: (§1) The inhibitory effect of compounds against the kinase CDK4/cyclin D3 was detected by Caliper Mobility Shift Assay method. The final concentration of the compounds to be tested was set at 10 concentrations starting from 1 μM by 3-fold serial dilution. 5 μL of compounds at 5-fold final concentration and 10 μL of CDK4/cyclin D3 kinase solution at a final concentration of 10 nM was added to a 384-well reaction plate, respectively. The plate was pre-incubated for 10 min at room temperature (with negative control wells containing 10 μL of kinase buffer and 5 μL of 5% DMSO; positive control wells containing 10 μL of kinase solution and 5 μL of 5% DMSO). The reaction was initiated by adding 10 μL of ATP at a final concentration of 250 μM and the corresponding substrate peptide mixture at room temperature for 150 minutes. 30 μL of stop detection solution containing EDTA was added to stop the kinase reaction. Caliper EZ Reader was used to read the conversion rate. Inhibition rate %=(average conversion rate of positive control %−conversion rate of sample %)/(average conversion rate of positive control %−average conversion rate of negative control %). wherein: negative control wells represent the conversion rate readings of wells without enzymatic activity; positive control wells represent conversion readings for wells with no compound inhibition. The log(inhibitor) vs. response—Variable slope of the analysis software GraphPad Prism 5 was used with log concentration value as the X-axis and the percent inhibition rate as the Y-axis to fit the dose-response curve, the IC50 value of each compound on the enzyme activity was thus obtained. Calculation formula: Y=Bottom+(Top−Bottom)/(1+10^((Log IC50−X)*HillSlope)).
(§2) The IC50 values for CDK6/Cyclin D3 and CDK2/Cyclin A2 of compounds of the present disclosure were tested in a similar manner.

The target in experiment [2] is CDK4/cyclin D3 (Homo sapiens, UniProt P11802). Briefly: Kinase activity assay, Caliper Mobility Shift Assay, CDK4/cyclin D3. The following applies: 10 nM kinase, ATP 250 μM, 150 minutes at room temperature. The procedure: as §1
Chain of CDK4/cyclin D3 (P11802 whole entry, species assumed): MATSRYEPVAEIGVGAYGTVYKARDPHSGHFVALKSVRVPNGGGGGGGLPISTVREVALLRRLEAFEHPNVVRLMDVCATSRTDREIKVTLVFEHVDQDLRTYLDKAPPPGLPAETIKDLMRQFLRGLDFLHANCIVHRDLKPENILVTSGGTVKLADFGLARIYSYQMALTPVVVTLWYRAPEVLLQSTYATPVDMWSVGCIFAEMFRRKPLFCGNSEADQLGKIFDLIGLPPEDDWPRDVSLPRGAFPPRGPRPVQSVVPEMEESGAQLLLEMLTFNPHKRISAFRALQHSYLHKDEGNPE
Chain of CDK4/cyclin D3 (P30281 whole entry partner, species assumed): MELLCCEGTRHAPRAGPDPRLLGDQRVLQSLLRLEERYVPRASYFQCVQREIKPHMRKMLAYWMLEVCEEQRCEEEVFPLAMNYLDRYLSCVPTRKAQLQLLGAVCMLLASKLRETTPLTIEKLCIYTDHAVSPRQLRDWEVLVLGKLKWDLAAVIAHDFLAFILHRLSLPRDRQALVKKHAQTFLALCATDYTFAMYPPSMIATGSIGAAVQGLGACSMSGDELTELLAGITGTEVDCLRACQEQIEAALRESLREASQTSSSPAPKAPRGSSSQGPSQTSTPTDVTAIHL
Experiment [3] has as its target CDK6/Cyclin D3 (Homo sapiens, UniProt Q00534). Briefly: Kinase activity assay, CDK6/Cyclin D3 (tested in a similar manner). The following applies: tested in a similar manner to CDK4/cyclin D3. The procedure: as §1, §2

Chain of CDK6/Cyclin D3 (Q00534 whole entry, species assumed): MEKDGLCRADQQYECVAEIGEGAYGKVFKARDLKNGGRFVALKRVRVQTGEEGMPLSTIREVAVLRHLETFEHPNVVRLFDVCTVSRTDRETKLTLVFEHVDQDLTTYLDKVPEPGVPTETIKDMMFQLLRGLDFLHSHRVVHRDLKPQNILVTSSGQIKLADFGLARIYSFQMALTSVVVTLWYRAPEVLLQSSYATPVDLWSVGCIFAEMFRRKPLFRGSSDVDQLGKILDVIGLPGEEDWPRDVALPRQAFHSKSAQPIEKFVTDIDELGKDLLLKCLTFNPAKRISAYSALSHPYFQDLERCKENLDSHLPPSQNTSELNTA
Chain of CDK6/Cyclin D3 (P30281 whole entry partner, species assumed): as the sequence (P30281 whole entry partner, species assumed) above

In general, IC50 refers to the point on the concentration scale where inhibition reaches its midpoint. For the compound `CC(C)c1noc2ccc3cnc(Nc4ccc(N5CCOCC5)cc4)nc3c12` [Compound I-29, 9-isopropyl-N-(4-morpholinophenyl) isoxazolo[5,4-H]quinazolin-2-amine], the values for the IC50 in experiment [1], in experiment [2] and in experiment [3] were 10 nM, 14 nM and 36 nM, respectively.

For the compound `CC(C)c1noc2ccc3cnc(Nc4ccc(N5CCC(CCCO)CC5)cc4)nc3c12` [Compound I-30, 3-(1-(4-((9-isopropylisoxazolo[5,4-h]quinazolin-2-yl)amino)phenyl)piperidin-4-yl)propan-1-ol], the IC50 in experiment [1] was 140 nM; in experiment [2] it was 100 nM; in experiment [3], 245 nM.

For the compound `COc1cc(N2CCN(C)CC2)ccc1Nc1ncc2ccc3onc(C(C)C)c3c2n1` [Compound I-31, 9-isopropyl-N-(2-methoxy-4-(4-methylpiperazin-l-yl)phenyl)isoxazolo [5,4-H]quinazolin-2-amine], the IC50 stood at 244 nM in experiment [1], 98 nM in experiment [2] and 340 nM in experiment [3].

For `CC(C)c1noc2ccc3cnc(Nc4ccc(N5CCOCC5)cc4F)nc3c12` [Compound I-32, N-(2-fluoro-4-morpholinophenyl)-9-isopropylisoxazolo[5,4-h] quinazolin-2-amine], the IC50 came out at 294 nM in experiment [1], 150 nM in experiment [2] and 359 nM in experiment [3].

For the compound `CC(C)c1noc2ccc3cnc(Nc4ccc(N5CCNCC5)c(F)c4)nc3c12` [Compound I-33, N-(3-fluoro-4-(piperazin-1-yl)phenyl)-9-isopropylisoxazolo[5,4-H] quinazolin-2-amine], the concentration for half-maximal inhibition (IC50) was found to be 10 nM in experiment [1], 3 nM in experiment [2] and 7 nM in experiment [3].

As for `CC(C)c1noc2ccc3cnc(Nc4ccc(N5CCN(C)CC5)c(F)c4)nc3c12` [Compound I-34], the IC50 in experiment [1] turned out to be 12 nM; in experiment [2] it was 3 nM; in experiment [3] it was 9 nM.

For the compound `CCN1CCN(c2ccc(Nc3ncc4ccc5onc(C(C)C)c5c4n3)cc2F)CC1` [Compound I-35, N-(4-(4-ethylpiperazin-1-yl)-3-fluorophenyl)-9-isopropylisoxazolo[5,4-H]quinazolin-2-amine], the IC50 was 10 nM in experiment [1], 3 nM in experiment [2] and 8 nM in experiment [3].

As to `CC(C)c1noc2ccc3cnc(Nc4ccc(N5CCOCC5)c(F)c4)nc3c12` [Compound I-36, N-(3-fluoro-4-morpholinophenyl)-9-isopropylisoxazolo[5,4-H] quinazolin-2-amine], the half-maximal inhibitory concentration (IC50) in experiment [1] amounted to 22 nM; in experiment [2], 20 nM; in experiment [3], 34 nM.

Turning to `COc1ccc2cc(Nc3ncc4ccc5onc(C(C)C)c5c4n3)ccc2n1` [Compound I-37, 9-isopropyl-N-(2-methoxyquinolin-6-yl)isoxazolo[5,4-H]quinazolin-2-amine], the IC50 turned out to be 82 nM in experiment [1], 34 nM in experiment [2] and 68 nM in experiment [3].

On to `CC(C)c1noc2c1-c1nc(Nc3ccc(N4CCNCC4)c(F)c3)ncc1CC2` [Compound I-38, N-(3-fluoro-4-(piperazin-1-yl)phenyl)-9-isopropyl-5,6-dihydroisoxazolo[5,4-H] quinazolin-2-amine], for which the IC50 in experiment [1] was determined as 10 nM; in experiment [2], 7 nM; in experiment [3], 21 nM.

With `CC(C)c1noc2c1-c1nc(Nc3ccc(N4CCN(C)CC4)c(F)c3)ncc1CC2` [Compound I-39, N-(3-fluoro-4-(4-methylpiperazin-1-yl)phenyl)-9-isopropyl-5,6-dihydroisoxazolo[5,4-H]quinazolin-2-amine], the IC50 in experiment [1] was determined as 11 nM; in experiment [2], 6 nM; in experiment [3], 17 nM.

For `CC(C)c1noc2ccc3cnc(Nc4cccc(S(N)(=O)=O)c4)nc3c12` [Compound I-40, 3-((9-isopropylisoxazolo[5,4-h]quinazolin-2-yl)amino)benzenesulfonamide], the IC50 is 10 nM in experiment [1], 2 nM in experiment [2] and 6 nM in experiment [3].

Turning to `CC(C)c1noc2ccc3cnc(Nc4ccc(N(CCN5CCOCC5)S(C)(=O)=O)cc4)nc3c12` [Compound I-41, N-(4-((9-isopropylisoxazolo[5,4-H]quinazolin-2-yl)amino)phenyl)-N-(2-morpholinoethyl) methanesulfonamide], the half-maximal inhibitory concentration (IC50) worked out at 12 nM in experiment [1], 2 nM in experiment [2] and 7 nM in experiment [3].

As to `CC(C)c1noc2ccc3cnc(Nc4ccc(C(=O)N5CCNCC5)cc4)nc3c12` [Compound I-42, (4-((9-isopropylisoxazolo[5,4-H]quinazolin-2-yl)amino)phenyl) (piperazin-1-yl)methanone], the IC50 in experiment [1] amounted to 5 nM; in experiment [2] it was 3 nM; in experiment [3], 9 nM.

`CC(C)c1noc2ccc3cnc(Nc4ccc(C(=O)N5CCN(C)CC5)cc4)nc3c12` [Compound I-43, (4-((9-isopropylisoxazolo[5,4-H]quinazolin-2-yl)amino)phenyl) (4-methylpiperazin-1-yl)methanone]: the IC50 was found to be 4 nM in experiment [1], 1 nM in experiment [2] and 5 nM in experiment [3].

As to `CC(C)c1noc2ccc3cnc(Nc4ccc(OCCN(C)C)cc4)nc3c12` [Compound I-44, N-(4-(2-(dimethylamino)ethoxy)phenyl)-9-isopropylisoxazolo[5,4-h]quinazolin-2-amine], the 50% inhibitory concentration (IC50) in experiment [1] came to 10 nM; in experiment [2], 2 nM; in experiment [3], 4 nM.
